Paper PMC9249104 (Nature chemical biology, 2021)
“Also recorded” adds a separate entry of the source. Like-named read-outs stand apart in the source and are kept apart here.

Tests used:
[1] = tested on: 4EBP1 T37/T46 phosphorylation (mTORC1); experiment: AlphaLISA/MSD p4EBP1 T37/T46 in MDA-MB-468 cells; format: cell-based
[2] = tested on: AKT S473 phosphorylation (mTORC2); experiment: AlphaLISA/MSD pAKT S473 in MDA-MB-468 cells; format: cell-based
[3] = tested on: mTORC1 signaling (p4EBP1 T37/T46); experiment: p4EBP1 T37/T46 in parental and FKBP12 knockout NCI-H358 cells; format: cell-based
p4EBP1 T37/T46 = experiment: FK506 competition, p4EBP1 T37/T46 in MDA-MB-468 cells; format: cell-based
MCF-7 cells = experiment: Cell viability; format: cell-based; settings: MCF-7, 72 hours
[4] = tested on: 4EBP1/2 WT and 4EBP1/2 DKO MEFs; experiment: Cell growth of E1A/Ras-transformed 4EBP1/2 WT and DKO MEFs; format: cell-based, mouse; settings: 72 hours
[5] = Two-day glucose tolerance test; format: in vivo; settings: mice, one hour after inhibitor administration
[6] = MCF-7 subcutaneous xenograft: body weight; settings: MCF-7 xenograft mice; bi-steric inhibitors ip once weekly, MLN0128 po daily
PIK3CD = PIK3CD (Homo sapiens, UniProt O00329); experiment: KiNativ kinome screen in Ramos cells: PIK3CD; settings: read-out: inhibition of PIK3CD
Chain of PIK3CD (O00329 whole entry): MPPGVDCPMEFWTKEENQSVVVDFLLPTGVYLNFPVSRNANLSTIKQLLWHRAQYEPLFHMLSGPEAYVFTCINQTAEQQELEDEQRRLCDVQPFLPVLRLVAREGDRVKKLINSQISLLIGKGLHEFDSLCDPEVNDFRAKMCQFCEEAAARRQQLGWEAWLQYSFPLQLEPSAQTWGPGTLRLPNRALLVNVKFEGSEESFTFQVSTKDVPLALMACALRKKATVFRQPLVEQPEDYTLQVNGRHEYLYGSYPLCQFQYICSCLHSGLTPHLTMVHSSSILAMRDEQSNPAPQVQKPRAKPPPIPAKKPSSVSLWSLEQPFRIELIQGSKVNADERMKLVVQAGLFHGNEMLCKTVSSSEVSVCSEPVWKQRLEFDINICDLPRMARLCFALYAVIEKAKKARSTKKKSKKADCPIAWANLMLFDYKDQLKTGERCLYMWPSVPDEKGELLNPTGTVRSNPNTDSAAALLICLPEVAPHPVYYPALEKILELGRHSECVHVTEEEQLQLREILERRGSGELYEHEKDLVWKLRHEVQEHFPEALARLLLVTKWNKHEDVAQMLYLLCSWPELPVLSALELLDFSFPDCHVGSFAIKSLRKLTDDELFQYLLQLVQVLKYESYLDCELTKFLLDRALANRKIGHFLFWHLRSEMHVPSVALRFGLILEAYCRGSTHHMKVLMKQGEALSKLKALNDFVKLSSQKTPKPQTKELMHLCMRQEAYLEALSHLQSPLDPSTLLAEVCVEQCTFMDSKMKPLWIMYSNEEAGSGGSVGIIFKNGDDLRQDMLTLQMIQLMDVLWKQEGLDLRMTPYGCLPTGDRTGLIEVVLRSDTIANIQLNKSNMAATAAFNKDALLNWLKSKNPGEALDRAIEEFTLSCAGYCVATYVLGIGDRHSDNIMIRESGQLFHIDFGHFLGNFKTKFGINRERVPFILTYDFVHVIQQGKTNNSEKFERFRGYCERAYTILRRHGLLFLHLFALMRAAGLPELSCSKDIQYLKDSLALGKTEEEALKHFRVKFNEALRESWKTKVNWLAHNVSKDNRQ
Chain of PIK3CD (P27986 whole entry partner): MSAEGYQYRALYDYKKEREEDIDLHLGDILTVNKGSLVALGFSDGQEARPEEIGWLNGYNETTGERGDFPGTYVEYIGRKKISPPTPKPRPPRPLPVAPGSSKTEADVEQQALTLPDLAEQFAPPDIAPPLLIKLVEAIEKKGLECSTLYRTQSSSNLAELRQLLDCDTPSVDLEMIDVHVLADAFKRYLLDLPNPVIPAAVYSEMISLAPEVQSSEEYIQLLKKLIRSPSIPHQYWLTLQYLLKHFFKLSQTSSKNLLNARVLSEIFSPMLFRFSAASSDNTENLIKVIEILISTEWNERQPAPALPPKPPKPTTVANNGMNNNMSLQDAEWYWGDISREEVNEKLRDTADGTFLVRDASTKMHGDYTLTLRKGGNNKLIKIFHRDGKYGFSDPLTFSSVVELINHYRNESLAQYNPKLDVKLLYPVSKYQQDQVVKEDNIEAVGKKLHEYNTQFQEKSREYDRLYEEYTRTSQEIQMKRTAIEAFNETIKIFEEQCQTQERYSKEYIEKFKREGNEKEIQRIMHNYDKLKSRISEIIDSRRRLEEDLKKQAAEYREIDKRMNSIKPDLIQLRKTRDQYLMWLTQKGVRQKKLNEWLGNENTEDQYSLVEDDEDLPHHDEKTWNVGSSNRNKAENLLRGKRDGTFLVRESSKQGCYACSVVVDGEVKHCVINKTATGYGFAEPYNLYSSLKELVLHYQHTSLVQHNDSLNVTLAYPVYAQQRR

mTORC1 over mTORC2 = experiment: mTORC1/2 selectivity: potencies for inhibition of 4EBP1 T37/T46; format: cell-based; settings: MDA-MB-468; p4EBP1 T37/T46 vs pAKT S473 potencies
[7] = tested on: S6K T389 phosphorylation (mTORC1); experiment: AlphaLISA pS6K T389 in MDA-MB-468 cells; format: cell-based
pAKT S473 [8] = experiment: Immunoblot of MCF-7 cells overexpressing Myr-AKT or vector control; format: cell-based; settings: 4 hours; for effect on pAKT S473 in Myr-AKT cells: MCF-7 Myr-AKT cells, BiS-31x up to 100 nM; for effect on pAKT S473 in parental cells: MCF-7 parental cells
[9] = tested on: mTOR FRB mutation (F2108L); experiment: Immunoblot of parental MCF-7 and MCF-7 cells harboring mTOR F2108L; format: cell-based; settings: MCF-7, four hours
kinases other than mTOR = experiment: KiNativ kinome screen in Ramos cells: kinases other than mTOR; settings: 1 µM
pAKT S473 [10] = experiment: Immunoblot of MCF-7 and BT474 cells: pAKT S473; format: cell-based; settings: 10 nM, by 4 hours
[11] = tested on: HER3 expression and phosphorylation; experiment: Immunoblot of MCF-7 and BT474 cells: HER3; format: cell-based; settings: 10 nM, by 24 hours
[12] = tested on: MDA-MB-468 sgGFP and sg4EBP1 cells; experiment: Cell viability of MDA-MB-468 sgGFP and sg4EBP1 cells; format: cell-based; settings: for concentration suppressing proliferation: five days
eIF4F complex formation = experiment: In vitro cap-binding affinity assay, MDA-MB-468 sgGFP and sg4EBP1 cells; format: cell-based; settings: 3 nM, 4 and 24 hours, MDA-MB-468 sgGFP cells
[13] = tested on: pS6K T389, pAKT S473, cyclin D1; experiment: Immunoblot of MDA-MB-468 and MCF-7 sgGFP and sg4EBP1 cells; format: cell-based; settings: 4 hours
global protein synthesis = experiment: Puromycin incorporation in MCF-7 cells; format: cell-based; settings: MCF-7, 4 hours
mTORC1 = settings: cited from earlier work
AKT S473 phosphorylation = experiment: Immunoblot of PC3 cells, 4 or 24 hours; format: cell-based
FKBP12 = FKBP12 (Homo sapiens, UniProt P62942); experiment: TR-FRET competitive binding assay for FKBP12
Chain of FKBP12 (P62942 whole entry): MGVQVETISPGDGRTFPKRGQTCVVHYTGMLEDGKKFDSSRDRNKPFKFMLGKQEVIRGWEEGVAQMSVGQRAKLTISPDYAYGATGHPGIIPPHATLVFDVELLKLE

[14] = mouse, in vivo

## CC(C)n1nc(-c2ccc3oc(N)nc3c2)c2c(N)ncnc21 [MLN0128]
[1]
  effect on p4EBP1 T37/T46: inhibited
[2]
  effect on pAKT S473: inhibited
[3]
  impact of FKBP12 knockout on inhibitory activity: Neither FKBP12 knockout nor addition of FK506 had an impact
p4EBP1 T37/T46
  impact of addition of FK506 on inhibitory activity: Neither FKBP12 knockout nor addition of FK506 had an impact
MCF-7 cells
  GI50 relative to BiS-NS and BiS-13x (less potent): 10 fold
[4]
  sensitivity to cell growth inhibition in 4EBP1/2 DKO MEFs compared to WT MEFs: a similar pattern was observed
[5]
  return of glucose levels to baseline after the first glucose challenge: delayed
[6]
  maximum loss in body weight: up to 15%
PIK3CD
  inhibition at 1 µM: 69%

## CC(C)n1nc(-c2cc3cc(O)ccc3[nH]2)c2c(N)ncnc21 [PP242]
[1]
  effect on p4EBP1 T37/T46: inhibited
[2]
  effect on pAKT S473: inhibited

## CO[C@H]1C[C@@H]2CC[C@@H](C)[C@@](O)(O2)C(=O)C(=O)N2CCCC[C@H]2C(=O)O[C@H]([C@H](C)C[C@@H]2CC[C@@H](O)[C@H](OC)C2)C[C@@H](OC)[C@H](C)/C=C(\C)[C@@H](O)[C@@H](OC)/C(=N/OCc2cn(CCOCCOCCOCCOCCOCCOCCOCCOCCC(=O)NCCCCn3nc(-c4ccc5oc(N)nc5c4)c4c(N)ncnc43)nn2)[C@H](C)C[C@H](C)/C=C/C=C/C=C/1C [RMC-4529]
mTORC1 over mTORC2
  selectivity for mTORC1 over mTORC2: 31 fold
[1]; read-out: 4EBP1 T37/T46 IC50
  IC50: 6.37 nM
[7]; read-out: S6K IC50
  IC50: 0.98 nM
pAKT S473 [8]
  effect on pAKT S473 in Myr-AKT cells: did not inhibit
  effect on pAKT S473 in parental cells: increase
[9]
  reduction in potency in cells with mTOR FRB mutation (F2108L): 10 fold
MCF-7 cells
  GI50 relative to BiS-NS and BiS-13x (less potent): 10 fold
[6]
  maximum loss in body weight: 5%
Kinases other than mTOR
  interactions with kinases other than mTOR: No interactions

## CO[C@@H]1C[C@@H]2CC[C@@H](C)[C@@](O)(O2)C(=O)C(=O)N2CCCC[C@@H]2C(=O)O[C@H]([C@H](C)C[C@H]2CC[C@H](OCCOCc3cn(CCOCCOCCOCCOCCOCCOCCOCCOCCC(=O)NCCCCn4nc(-c5ccc6oc(N)nc6c5)c5c(N)ncnc54)nn3)[C@H](OC)C2)CC(=O)[C@H](C)/C=C(\C)[C@H](O)[C@@H](OC)C(=O)[C@H](C)C[C@H](C)/C=C/C=C/C=C/1C [RapaLink-1]
mTORC1 over mTORC2
  selectivity for mTORC1 over mTORC2: three- to four; also recorded: approximately four
[1]
  effect on p4EBP1 T37/T46: equipotent
[7]
  effect on pS6K T389: equipotent
pAKT S473 [8]
  effect on pAKT S473 in Myr-AKT cells: inhibited
  effect on pAKT S473 in parental cells: inhibited
pAKT S473 [10]
  effect on pAKT S473: abolished
[11]
  effect on HER3 expression and phosphorylation: increased
[12]; MDA-MB-468, five days
  sensitivity of sg4EBP1 cells compared to sgGFP cells (less sensitive): three
[12]; MDA-MB-468 sg4EBP1 cells
  concentration suppressing proliferation: 0.3 nM
[12]; MDA-MB-468 sgGFP cells
  concentration suppressing proliferation: 0.1 nM
eIF4F complex formation
  displacement of eIF4G by 4EBP1 in the cap-binding complexes: significant displacement
[13]; control (sgGFP) and sg4EBP1 cells
  effect on pS6K T389 and pAKT S473: suppressed pS6K T389 and pAKT S473 effectively and equivalently
[13]; sg4EBP1 cells
  effect on cyclin D1 levels: unaffected
[13]; sgGFP cells
  effect on cyclin D1 levels: reduced
Global protein synthesis
  effect on global protein synthesis: suppressed
mTORC1
  selectivity for mTORC1: three- to four

## CO[C@H]1C[C@@H]2CC[C@@H](C)[C@@](O)(O2)C(=O)C(=O)N2CCCC[C@H]2C(=O)O[C@H]([C@H](C)C[C@@H]2CC[C@@H](O)[C@H](OC)C2)CC(=O)[C@H](C)/C=C(\C)[C@@H](O)[C@@H](OC)C(=O)[C@H](C)C[C@H](C)/C=C/C=C/C=C/1C [Rapamycin]
[7]
  effect on pS6K T389: inhibited
[2]
  effect on pAKT S473: increased
AKT S473 phosphorylation
  effect on AKT S473 phosphorylation: significant inhibition

## RMC-4627
mTORC1 over mTORC2
  selectivity for mTORC1 over mTORC2: 13 fold
[1]
  effect on p4EBP1 T37/T46: equipotent
[7]
  effect on pS6K T389: equipotent
FKBP12
  affinity for FKBP12 relative to rapamycin (lower): approximately 3 fold
[14]
  maximum loss in body weight: 10%
